Reference: US10166216B2 (Rigel Pharmaceuticals, Inc., priority 2006, dated 2019)

Biological target: Axl (Homo sapiens (Human), UniProt P30530)
Assay: Phospho-Akt in-cell Western assay (Axl-antibody cross-linking stimulation)
Format: cell-based
Conditions: inhibition of Axl activity
How it was run: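 HeLa cells on poly-L-lysine, starved 24 hrs with Axl/Fc, pre-treated with compound 1 hr at 37° C., then stimulated 5 min with Axl primary/secondary antibody cluster. Fixed cells probed for phospho-Akt by chemiluminescent in-cell Western; signal normalized to crystal violet cell number.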

[1] = phospho-Akt in-cell Western assay
[2] = Hela cells, phospho-Akt readout, Table 5, formula (Ia3)

Axl, sequence (P30530 26-894): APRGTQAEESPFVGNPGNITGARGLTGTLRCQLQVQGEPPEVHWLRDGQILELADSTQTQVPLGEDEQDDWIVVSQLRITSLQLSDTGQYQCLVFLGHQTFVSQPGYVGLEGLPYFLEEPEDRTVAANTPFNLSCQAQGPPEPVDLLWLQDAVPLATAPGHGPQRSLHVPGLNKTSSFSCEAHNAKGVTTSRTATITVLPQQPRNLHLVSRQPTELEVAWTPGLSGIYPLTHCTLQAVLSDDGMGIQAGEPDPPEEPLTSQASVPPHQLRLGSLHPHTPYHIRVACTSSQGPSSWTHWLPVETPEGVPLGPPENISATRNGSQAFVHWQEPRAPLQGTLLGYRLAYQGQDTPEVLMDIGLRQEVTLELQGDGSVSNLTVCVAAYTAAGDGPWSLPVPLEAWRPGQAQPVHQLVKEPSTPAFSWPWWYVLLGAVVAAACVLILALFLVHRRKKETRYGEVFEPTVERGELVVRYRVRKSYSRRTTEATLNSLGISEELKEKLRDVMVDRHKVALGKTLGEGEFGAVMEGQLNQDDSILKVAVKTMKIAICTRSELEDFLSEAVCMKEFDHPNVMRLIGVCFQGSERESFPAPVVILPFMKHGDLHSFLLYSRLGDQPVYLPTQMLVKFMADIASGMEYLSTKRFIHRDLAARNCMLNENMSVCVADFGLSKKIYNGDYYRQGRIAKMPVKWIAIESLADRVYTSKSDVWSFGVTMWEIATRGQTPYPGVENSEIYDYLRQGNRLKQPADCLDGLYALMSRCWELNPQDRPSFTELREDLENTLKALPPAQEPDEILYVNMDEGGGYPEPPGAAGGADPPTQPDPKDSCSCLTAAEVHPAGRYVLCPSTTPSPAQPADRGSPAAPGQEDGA

IC50 [1] [nM]	IC50 [2] [nM]	SMILES
1000 to 10000	–	Cc1csc2c(-n3nc(Nc4ccc(N5CCN([C@H]6CC7CCC6C7)CC5)cc4)nc3N)nc(-c3cccc(NS(C)(=O)=O)c3)nc12 (stereo partly drawn) [Compound 238, 1-(7-methyl-2-(3-(methylsulfonyl)aminophenyl)thieno[3,2-d]pyrimidin-4-yl)-N^3-(4-(4-((2S)-bicyclo[2.2.1]heptan-2-yl)piperazin-1-yl)phenyl)-1H-1,2,4-triazole-3,5-diamine]
1000 to 10000	–	Cc1csc2c(-n3nc(Nc4ccc(N5CCN([C@H]6CC7CCC6C7)CC5)cc4)nc3N)nc(C=CCN3CCCC3)nc12 (stereo partly drawn) [Compound 239, 1-(7-methyl-2-(3-(pyrrolidin-1-yl)prop-1-enyl)thieno[3,2-d]pyrimidin-4-yl)-N^3-(4-(4-((2S)-bicyclo[2.2.1]heptan-2-yl)piperazin-1-yl)phenyl)-1H-1,2,4-triazole-3,5-diamine]
1000 to 10000	–	Cc1csc2c(-n3nc(Nc4ccc(N5CCN([C@H]6CC7CCC6C7)CC5)cc4)nc3N)nc(C=CCN3CCN(C)CC3)nc12 (stereo partly drawn) [Compound 240, 1-(7-methyl-2-(3-(4-methylpiperazin-1-yl)prop-1-enyl)thieno[3,2-d]pyrimidin-4-yl)-N^3-(4-(4-((2S)-bicyclo[2.2.1]heptan-2-yl)piperazin-1-yl)phenyl)-1H-1,2,4-triazole-3,5-diamine]
1000 to 10000	–	Cc1csc2c(-n3nc(Nc4ccc(N5CCN([C@H]6CC7CCC6C7)CC5)cc4)nc3N)nc(/C=C/CN3CCOCC3)nc12 (stereo partly drawn) [Compound 241, 1-((E)-7-methyl-2-(3-(morpholin-4-yl)prop-1-enyl)thieno[3,2-d]pyrimidin-4-yl)-N^3-(4-(4-((2S)-bicyclo[2.2.1]heptan-2-yl)piperazin-1-yl)phenyl)-1H-1,2,4-triazole-3,5-diamine]
< 1000	–	Cc1csc2c(-n3nc(Nc4ccc(N5CCN([C@H]6C[C@@H]7CC[C@H]6C7)CC5)c(Cl)c4)nc3N)ncnc12 [Compound 242, 1-(7-methylthieno[3,2-d]pyrimidin-4-yl)-N^3-(3-chloro-4-(4-((1S,2S,4R)-bicyclo[2.2.1]heptan-2-yl)piperazin-1-yl)phenyl)-1H-1,2,4-triazole-3,5-diamine]
< 1000	–	Nc1nc(Nc2ccc(N3CCN([C@H]4C[C@@H]5CC[C@H]4C5)CC3)c(Cl)c2)nn1-c1ncnc2ccsc12 [Compound 243, 1-thieno[3,2-d]pyrimidin-4-yl-N^3-(3-chloro-4-(4-((1S,2S,4R)-bicyclo[2.2.1]heptan-2-yl)piperazin-1-yl)phenyl)-1H-1,2,4-triazole-3,5-diamine]
< 1000	–	Nc1nc(Nc2ccc(N3CCN([C@H]4C[C@@H]5CC[C@H]4C5)CC3)c(Cl)c2)nn1-c1ncnc2sccc12 [Compound 244, 1-thieno[2,3-d]pyrimidin-4-yl-N^3-(3-chloro-4-(4-((1S,2S,4R)-bicyclo[2.2.1]heptan-2-yl)piperazin-1-yl)phenyl)-1H-1,2,4-triazole-3,5-diamine]
< 1000	–	Cc1csc2c(-n3nc(Nc4ccc(N5CCN([C@H]6C[C@@H]7CC[C@H]6C7)CC5)c(F)c4)nc3N)ncnc12 [Compound 245, 1-(7-methylthieno[3,2-d]pyrimidin-4-yl)-N^3-(3-fluoro-4-(4-((1S,2S,4R)-bicyclo[2.2.1]heptan-2-yl)piperazin-1-yl)phenyl)-1H-1,2,4-triazole-3,5-diamine]
–	> 20000	CNC(=O)c1ccc(Nc2nc(NC)n(-c3ccccc3)n2)cc1 [Compound 246, 1-phenyl-N^3-(4-(methylaminocarbonyl)-phenyl)-N^5-methyl-1H-1,2,4-triazole-3,5-diamine]
–	> 20000	CCOC(=O)c1ccc(Nc2nc(NC)n(-c3ccccc3)n2)cc1 [Compound 247, 1-phenyl-N^3-(4-(ethyloxocarbonyl)phenyl)-N^5-methyl-1H-1,2,4-triazole-3,5-diamine]
< 1000	–	Cc1csc2c(-n3nc(Nc4ccc(N5CCN(C6CC7CCC6C7)[C@H](C)C5)c(F)c4)nc3N)ncnc12 (stereo partly drawn) [Compound 248, 1-(7-methylthieno[3,2-d]pyrimidin-4-yl)-N^3-(3-fluoro-4-(3-(R)-methyl-4-(bicyclo[2.2.1]heptan-2-yl)piperazin-1-yl)phenyl)-1H-1,2,4-triazole-3,5-diamine]
